Test results published in US20040224880A1, “Regulation of gastric acid secretion by inwardly rectifying k+ channels” (Beth Israel Deaconess Medical Center, Inc., priority 2001, published 2004).
“Also recorded” adds a separate entry of the source.

How the values were obtained:
[1] = system: Ca^2+-dependent inwardly rectifying K^+ channel; details: HeLa cells (Diaz et al.); cited from earlier work
bullfrog gastric mucosa [2] = assay: Acid secretion of frog (bullfrog) gastric mucosa stimulated with histamine/carbachol or forskolin; type: cell-based
bullfrog gastric mucosa [3] = type: cell-based
Procedure: FIG. 1B Electrophysiology in the bullfrog gastric mucosa. […] Removal of NH4Cl was followed by a complete recovery of R within 30 min. Data were obtained from 21 experiments and are expressed as the mean±SEM.
FIG. 1C Electrophysiology in the bullfrog gastric mucosa. […] Removal of NH4Cl was followed by a complete recovery of PD within 30 min. Data were obtained from 21 experiments and are expressed as the mean±SEM.

rabbit gastric glands = assay: Intracellular ATP in rabbit gastric glands; type: cell-based
[4] = system: cimetidine-inhibited tissues; assay: Resistance (R) of cimetidine-inhibited gastric mucosa tissues; type: cell-based, bullfrog; details: pH 7.2
Procedure: Tissues were incubated with cimetidine until acid secretion reached 0 μEq/hr cm^2; experiments were performed only if the R of paired tissues was different by 10% or less.

bullfrog gastric mucosa [5] = details: cited from earlier work

In the case of `N` [NH4^+], the “inhibition of Ca2+-dependent inwardly rectifying K+ channel activity” value [1] is given as “potent inhibitor”.
In the case of `Cl.N` [NH4Cl, ammonium chloride], the “Rate of decline in acid secretion” value (bullfrog gastric mucosa [2]) is reported as −0.2881 (μEq/h · cm^2)/min, the “acid secretion after NH4Cl washed from the nutrient bath” value (bullfrog gastric mucosa [2]) is reported as 5.51±0.16 μEq/hr cm^2 and the “effect of 1-9 mM NH4Cl on acid secretion” value (bullfrog gastric mucosa [2]) is reported as “inhibition of acid secretion”. For the same molecule, the “least (minimum) concentration required for complete inhibition of acid secretion within 30 min” value (bullfrog gastric mucosa [2]) was 10 mM, the “rate of decline of acid secretion relative to cimetidine” value (bullfrog gastric mucosa [2]) was 3.6 times faster and the “rate of decline of acid secretion relative to omeprazole” value (bullfrog gastric mucosa [2]) was 3.2 times faster. The “rate of inhibition of acid secretion relative to cimetidine or omeprazole” value (bullfrog gastric mucosa [2]) was “more than 3 times faster”, the “time to complete inhibition of stimulated acid secretion” value (bullfrog gastric mucosa [2]) was at most 30 min and the “rate of acid secretion after NH4Cl” value (bullfrog gastric mucosa [2]; pH 7.2) was 0±0 μEq/hr cm^2. The “PD after NH4Cl” value (bullfrog gastric mucosa [3]) was 28.48±1.47 mvolts, the “PD after NH4Cl washed out” value (bullfrog gastric mucosa [3]) was 7.95±2.65 mvolts and the “R after NH4Cl” value (bullfrog gastric mucosa [3]) was 306.5±16.11 Ohm cm^2. The “R after NH4Cl washed out” value (bullfrog gastric mucosa [3]) was 159.0±16.83 Ohm cm^2, the “effect on potential difference (PD) of stimulated tissues (in words)” value (bullfrog gastric mucosa [3]) was “increase in potential difference (PD)” and the “effect on resistance (R) of stimulated tissues (in words)” value (bullfrog gastric mucosa [3]) was “increase in resistance (R)”. The “effect on concentration of ATP (in words)” value (rabbit gastric glands) was “statistically significant reduction in the concentration of ATP”, the “intracellular ATP” value (rabbit gastric glands) was 3.76±0.12 μM/mg protein and the “intracellular ATP, % of control” value (rabbit gastric glands) was 83 % of control. The “effect of NH4Cl on R of cimetidine-inhibited tissues (in words)” value [4] was “does not cause an increase in R; also recorded: no change in R”, the “effect of luminal NH4Cl on tissue resistance (Yanaka et al.)” value (bullfrog gastric mucosa [5]) was “significant decrement in tissue resistance” and the “effect of basolateral NH4Cl on acid secretion (Yanaka et al.)” value (bullfrog gastric mucosa [5]; pH 7.2) was “rapidly and completely inhibits acid secretion”.
